Test results: patent publication US20230255935A1, “ANTI-VIRAL COMPOUNDS AND METHODS FOR SCREENING SAME AND TREATING VIRAL INFECTIONS” (priority 2020, published 2023)

Biological target: full-length MERS-CoV N protein (Middle East respiratory syndrome-related coronavirus, UniProt K9N4V7)

CN(C)Cc1c[nH]c2ccc(OCc3ccccc3)cc12 [PSX-01, 5-benzyloxygramine]
radius of gyration (Rg) of N protein: 65
